Experimental data as given in patent US12643913B2, “Mcl-1 inhibitor formulations” (AMGEN INC., priority 2020, dated 2026).
In brackets after ≈: the same amount, converted by molar mass. Read-outs that look alike come from different tables or passages of the source.

Assays:
[1] = Stability of AMG 397 in THF and DCM solution at 1 mg/mL, room temperature, amber and clear vials (peak area % at 280 nm); type: physicochemical; conditions: for Peak Area % (280 nm), AMG 397 peak RRT 1.00: 1 mg/mL, room temperature
Protocol: The stability of AMG 397 was assessed in both THF and DCM over 24 hours to cover the processing time in the solvent. The stability was assessed in both amber and clear glass vials to assess the impact of light on stability.
Light had little impact on degradation up to 72 hours in DCM.

[2] = Solubility of AMG 397 in common spray-drying solvents; type: physicochemical
Protocol: Solvent selection: The solubility of AMG 397 was measured in solvents commonly used for spray drying. […] Based on the solubility data, tetrahydrofuran (THF) was selected as a solvent for the initial spray drying-work and further work was conducted in DCM.
AMG 397 is known to form solvates with many solvents. The formation of a solvate can lead to precipitation from solution due to the lower solubility in the solvent. Care must be taken to select a solvent and concentration of AMG 397 which can be maintained for the duration of the spray-drying process. The solubility of AMG 397 was highest in DCM where concentrations >100 mg/mL were achieved. Both DCM and THF are ICH class II solvents with residual solvent limits of 600 and 720 ppm, respectively. Therefore, the residual solvent levels must be removed to below these levels during the secondary drying process.

## CO[C@]1(CN2CCN3CCCC[C@@H]3C2)/C=C/C[C@H](C)[C@@H](C)S(=O)(=O)NC(=O)c2ccc3c(c2)N(C[C@@H]2CC[C@H]21)C[C@@]1(CCCc2cc(Cl)ccc21)CO3 [AMG 397, (1S,3′R,6′R,7′R,8′E,11'S,12′R)-6-chloro-7′-methoxy-11′,12′-dinethyl-7′-((9aR)-octahydro-2H-pyrido[1,2-a]pyrazin-2-ylmethyl)-3,4-dihydro-2H,15′H-spiro[naphthalene-1,22′-[20]oxa[13]thia[1,14]diazatetracyclo [14.7.2.0^3,6.0^19,24]pentacosa[8,16,18,24]tetraen]-15′-one 13′,13′-dioxide]
[1]; DCM, 2 Hrs, Amber
  Peak Area % (280 nm), AMG 397 peak RRT 1.00: 99.49%
[1]; DCM, 2 Hrs, Clear
  Peak Area % (280 nm), AMG 397 peak RRT 1.00: 99.47%
[1]; DCM, 4 Hrs, Amber
  Peak Area % (280 nm), AMG 397 peak RRT 1.00: 99.44%
[1]; DCM, 4 Hrs, Amber (second 4 Hrs column)
  Peak Area % (280 nm), AMG 397 peak RRT 1.00: 99.52%
[1]; DCM, 24 Hrs, Amber
  Peak Area % (280 nm), AMG 397 peak RRT 1.00: 99.44%
[1]; DCM, 24 Hrs, Clear
  Peak Area % (280 nm), AMG 397 peak RRT 1.00: 99.48%
[1]; DCM, 72 Hrs, Amber
  Peak Area % (280 nm), AMG 397 peak RRT 1.00: 99.13%
[1]; DCM, 72 Hrs, Clear
  Peak Area % (280 nm), AMG 397 peak RRT 1.00: 98.78%
[1]; DCM, Initial
  Peak Area % (280 nm), AMG 397 peak RRT 1.00: 99.52%
[1]; DCM, up to 24 hours at room temperature
  Stability in DCM: stable
[1]; THF, 2 Hrs, Amber
  Peak Area % (280 nm), AMG 397 peak RRT 1.00: 99.41%
[1]; THF, 2 Hrs, Clear
  Peak Area % (280 nm), AMG 397 peak RRT 1.00: 98.98%
[1]; THF, 4 Hrs, Amber
  Peak Area % (280 nm), AMG 397 peak RRT 1.00: 99.51%
[1]; THF, 4 Hrs, Clear
  Peak Area % (280 nm), AMG 397 peak RRT 1.00: 97.51%
[1]; THF, 24 Hrs, Amber
  Peak Area % (280 nm), AMG 397 peak RRT 1.00: 98.62%
[1]; THF, 24 Hrs, Clear
  Peak Area % (280 nm), AMG 397 peak RRT 1.00: 92.68%
[1]; THF, 72 Hrs, Amber
  Peak Area % (280 nm), AMG 397 peak RRT 1.00: 97.20%
[1]; THF, 72 Hrs, Clear
  Peak Area % (280 nm), AMG 397 peak RRT 1.00: 90.59%
[1]; THF, Initial
  Peak Area % (280 nm), AMG 397 peak RRT 1.00: 99.52%
[1]; THF, presence of light accelerated degradation
  Stability in THF: unstable
[2]; Dichloromethane (DCM)
  solubility: > 100000 µg/mL
[2]; Tetrahydrofuran (THF)
  solubility: 33500 µg/mL (≈ 43800 µM)
[2]; acetone, organic solvent or mixture, read-out: Solubility
  solubility: 370 µg/mL (≈ 483 µM)
[2]; ethanol, organic solvent or mixture, read-out: Solubility
  solubility: 150 µg/mL (≈ 196 µM)
[2]; ethyl acetate, organic solvent or mixture, read-out: Solubility
  solubility: 750 µg/mL (≈ 980 µM)
[2]; methanol, organic solvent or mixture, read-out: Solubility
  solubility: 90 µg/mL (≈ 118 µM)
[2]; organic solvent or mixture, thermodynamic from solid, THF, after 24 hours, extended stirring at room temperature, solid precipitated, read-out: Final solubility in THF
  solubility at 24 h: 33.5 mg/mL (≈ 43800 µM)
[2]; organic solvent or mixture, thermodynamic from solid, THF, before extended stirring, read-out: Solubility in THF, initially
  solubility: > 50000 µg/mL
[2]; organic solvent or mixture, DCM, concentrations achieved, read-out: Solubility in DCM
  solubility: > 100000 µg/mL
[2]; various ratios of THF-water
  Solubility in THF in the presence of water: drops significantly
[2]; water, read-out: Solubility
  solubility: 7 µg/mL (≈ 9.14 µM)
